Results from ChEMBL document CHEMBL5244222, “A comprehensive review on xanthone derivatives as α-glucosidase inhibitors” (Eur J Med Chem, 2018).
Converted amounts (≈) assume the structure as drawn.

Tests used:
Alpha-glucosidase [1] = molecular target: T1, Alpha-glucosidase (Saccharomyces cerevisiae S288c, UniProt P53341+P38158+P07265); experiment: Inhibition of Saccharomyces cerevisiae alpha-glucosidase using PNPG as substrate incubated for 30 mins by spectrophotometric assay; assay type: protein assay
Alpha-glucosidase [2] = molecular target: T1, Alpha-glucosidase; experiment: Mixed-type inhibition of Saccharomyces cerevisiae alpha-glucosidase using PNPG as substrate incubated for 30 mins by Lineweaver-Burk double-reciprocal plot analysis; assay type: protein assay
Alpha-glucosidase [3] = molecular target: T1, Alpha-glucosidase; experiment: Inhibition of Saccharomyces cerevisiae alpha-glucosidase using maltose as substrate incubated for 30 mins by spectrophotometric assay; assay type: protein assay
Alpha-glucosidase [4] = molecular target: T1, Alpha-glucosidase; experiment: Inhibition of Saccharomyces cerevisiae alpha-glucosidase assessed as release of p-nitrophenol using pNPG as substrate preincubated for 5 mins followed by substrate addition and measured after 30 mins by absorbance assay; assay type: protein assay
Alpha glucosidase [5] = molecular target: T2, Alpha glucosidase (Homo sapiens, UniProt O43451+P10253+P14410+Q2M2H8); experiment: Inhibition of alpha-glucosidase (unknown origin) at 100 uM; assay type: protein assay
[6] = Inhibition of rice alpha-glucosidase using p-nitrophenyl-alpha-D-glucopyranoside as substrate preincubated for 15 mins followed by substrate addition and measured after 90 mins by spectroscopic analysis
Alpha-glucosidase [7] = molecular target: T1, Alpha-glucosidase; experiment: Inhibition of Saccharomyces cerevisiae alpha-glucosidase using PNPG as substrate preincubated for 15 mins followed by substrate addition and measured after 30 mins by spectrophotometric assay; assay type: protein assay
Alpha-glucosidase [8] = molecular target: T1, Alpha-glucosidase; experiment: Inhibition of Saccharomyces cerevisiae alpha-glucosidase assessed as release of p-nitrophenol using pNPG as substrate preincubated for 15 mins followed by substrate addition and measured after 15 mins by plate reader analysis; assay type: protein assay
Alpha-glucosidase [9] = molecular target: T1, Alpha-glucosidase; experiment: Inhibition of baker's yeast alpha-glucosidase using PNP as substrate preincubated for 30 mins followed by […] addition and measured after 1 mins by UV spectrophotometric analysis; assay type: protein assay
Alpha glucosidase [10] = molecular target: T2, Alpha glucosidase; experiment: Inhibition of alpha-glucosidase (unknown origin) using PNPG as substrate incubated for 30 mins by absorbance assay; assay type: protein assay
Alpha glucosidase [11] = molecular target: T2, Alpha glucosidase; experiment: Inhibition of alpha-glucosidase (unknown origin) at 40 uM; assay type: protein assay
Alpha-glucosidase [12] = molecular target: T1, Alpha-glucosidase; experiment: Inhibition of yeast alpha-glucosidase assessed as release of p-nitrophenol using PNPG as substrate preincubated for 10 mins followed by substrate addition and measured after 35 mins by microplate photometer analysis; assay type: protein assay
Alpha-glucosidase [13] = molecular target: T1, Alpha-glucosidase; experiment: Inhibition of Saccharomyces cerevisiae alpha-glucosidase assessed as release of p-nitrophenol using pNPG as substrate preincubated for 15 mins followed by substrate addition and measured after 30 mins by spectrophotometric analysis; assay type: protein assay
Alpha-glucosidase [14] = molecular target: T1, Alpha-glucosidase; experiment: Inhibition of Saccharomyces cerevisiae alpha-glucosidase using pNPG as preincubated for 15 mins followed by substrate addition and measured after 30 mins by spectroscopic analysis
Alpha-glucosidase [15] = molecular target: T1, Alpha-glucosidase; experiment: Inhibition of Saccharomyces cerevisiae alpha-glucosidase using pNPG as preincubated for 10 mins followed by substrate addition and measured after 30 mins by spectroscopic analysis; assay type: protein assay
Alpha-glucosidase [16] = molecular target: T1, Alpha-glucosidase; experiment: Inhibition of yeast alpha-glucosidase using p-nitrophenyl-alpha-D-glucopyranoside as substrate incubated for 30 mins by spectrophotometric assay; assay type: protein assay
Alpha glucosidase [17] = molecular target: T2, Alpha glucosidase; experiment: Inhibition of alpha-glucosidase (unknown origin) using PNPG as substrate preincubated for 15 mins followed by substrate addition by microplate reader assay; assay type: protein assay
Rattus norvegicus = organism: Rattus norvegicus; experiment: Inhibition of rat intestine alpha-glucosidase using MUG as substrate at 100 uM preincubated for 15 mins followed by substrate addition and measured after 30 mins by fluorescence microplate reader analysis; assay type: tissue-based; conditions: time 45.0 min
[18] = molecular target: Alpha-glucosidase (Saccharomyces cerevisiae S288c) (UniProt P53341+P38158+P07265); experiment: Inhibition of Saccharomyces cerevisiae alpha-glucosidase using p-NP-alpha-G as substrate at 100 uM by spectroscopic analysis; assay type: protein assay
Prunus dulcis = experiment: Inhibition of almond beta-glucosidase using p-NP-beta-G as substrate at 100 uM by spectroscopic analysis

Question: With `C=C(C)C1Cc2c(cc3oc4cc(O)c(OC)c(CC=C(C)C)c4c(=O)c3c2O)O1` (configuration not stated) [MANGOSTENONE F] as the compound, how does the IC50 (Alpha-glucosidase [1]) read?
Answer: Its IC50 is 21 µM.

Question: And the Ki (Alpha-glucosidase [2])?
Answer: Its Ki is 18.1 µM.

Question: What about the IC50 (Alpha-glucosidase [3]) of the same compound?
Answer: The IC50 was 191.2 µM.

Question: With `CC(C)=CCc1cc2c(=O)c3c(O)c4c(cc3oc2c(O)c1O)OC(C)(C)C=C4` as the compound, how does the IC50 (Alpha-glucosidase [4]) read?
Answer: The IC50 was 29.36 µM.

Question: For `COc1cc(OC/C=C(\C)C/C=C(\C)C/C=C(\C)C/C=C(\C)C/C=C(\C)C/C=C(\C)C/C=C(\C)C/C=C(\C)CC=C(C)C)c2c(=O)c3c(O)ccc(OC)c3oc2c1`, which inhibition (Alpha glucosidase [5]) is on record?
Answer: The inhibition was 34.5%.

Question: Which IC50 [6] does the source give for `O=c1c2cc(O[C@H]3O[C@@H](O)[C@H](O)[C@@H](O)[C@@H]3O)c(O)cc2oc2cc(O)c([C@H]3O[C@@H](CO)[C@H](O)[C@@H](O)[C@@H]3O)cc12` here?
Answer: Its IC50 is 158 µg/mL (≈ 285 µM).

Question: For `O=c1c2cc(O)ccc2oc2cccc(O)c12`, which IC50 (Alpha-glucosidase [7]) is on record?
Answer: The IC50 was 145 µM.

Question: And the IC50 (Alpha-glucosidase [8])?
Answer: Its IC50 is 35.8 µg/mL (≈ 157 µM).

Question: Which IC50 (Alpha-glucosidase [4]) does the source give for `CC(C)=CCc1c(O)cc2oc3ccc(O)cc3c(=O)c2c1O` here?
Answer: The IC50 was > 100 µM.

Question: With `COc1c(CC=C(C)C)c(O)c2c(=O)c3c(O)ccc(O)c3oc2c1CC=C(C)C` as the compound, how does the IC50 (Alpha-glucosidase [7]) read?
Answer: Its IC50 is 76 µM.

Question: Which IC50 (Alpha-glucosidase [4]) does the source give for `CC1(C)C=Cc2c(cc3oc4c(O)c5c(cc4c(=O)c3c2O)C=CC(C)(C)O5)O1` here?
Answer: The IC50 was > 100 µM.

Question: Which IC50 (Alpha-glucosidase [1]) does the source give for `CC(C)=CC/C(C)=C/Cc1c(O)cc2oc3c(O)ccc(O)c3c(=O)c2c1O` here?
Answer: The IC50 was 6.9 µM.

Question: And the IC50 (Alpha-glucosidase [7])?
Answer: The IC50 was 394 µM.

Question: And the Ki (Alpha-glucosidase [2])?
Answer: The Ki was 2.8 µM.

Question: And the IC50 (Alpha-glucosidase [3])?
Answer: The IC50 was 35.3 µM.

Question: What does the source list for `O=c1c2cc(O)ccc2oc2cc(O)cc(O)c12`?
Answer: IC50 (Alpha-glucosidase [8]): 3.2 µg/mL (≈ 13.1 µM); IC50 (Alpha-glucosidase [9]): 14.7 µM

Question: With `CC(C)=CC/C(C)=C/Cc1c(O)c(CC=C(C)C)c2oc3c(O)ccc(O)c3c(=O)c2c1O` as the compound, how does the IC50 (Alpha-glucosidase [7]) read?
Answer: Its IC50 is 227 µM.

Question: With `O=c1c2ccccc2oc2cc(O)cc(O)c12` as the compound, how does the IC50 (Alpha glucosidase [10]) read?
Answer: Its IC50 is 35.2 µM.

Question: With `COc1cc(OC/C=C(\C)C/C=C(\C)CC=C(C)C)c2c(=O)c3c(O)ccc(OC)c3oc2c1` as the compound, how does the inhibition (Alpha glucosidase [5]) read?
Answer: The inhibition was 66.2%.

Question: With `COc1cc(O[C@H]2O[C@@H](CO)[C@H](O)[C@H](O)[C@@H]2O)c2c(=O)c3ccc(OC)c(OC)c3oc2c1` as the compound, how does the inhibition (Alpha glucosidase [11]) read?
Answer: Its inhibition is 98.8%.

Question: For `C=C(C)/C=C/c1c(OC)cc(O)c2c(=O)c3ccc(O)c(O)c3oc12`, which IC50 (Alpha-glucosidase [12]) is on record?
Answer: Its IC50 is 9.4 µM.

Question: For `C=C(C)/C=C/c1c(OC)c(O)cc2oc3cc4c(c(O)c3c(=O)c12)CC(O)C(C)(C)O4` (configuration not stated), which IC50 (Alpha-glucosidase [1]) is on record?
Answer: The IC50 was 30.5 µM.

Question: What about the Ki (Alpha-glucosidase [2]) of the same compound?
Answer: The Ki was 23 µM.

Question: And the IC50 (Alpha-glucosidase [3])?
Answer: Its IC50 is 102.5 µM.

Question: With `COC(=O)c1c(O)ccc2oc3cc(C(=O)O)cc(O)c3c(=O)c12` as the compound, how does the IC50 (Alpha-glucosidase [13]) read?
Answer: The IC50 was 260 µM.

Question: With `CC(C)=CCOc1cc(O)c2c(=O)c3ccccc3oc2c1` as the compound, how does the inhibition (Alpha glucosidase [5]) read?
Answer: Its inhibition is 31%.

Question: With `COc1cc(O)c2c(=O)c3c(O)c(O[C@@H]4OC[C@@H](O)[C@H](O)[C@H]4O[C@@H]4O[C@@H](C)[C@H](O)[C@@H](O)[C@H]4O)ccc3oc2c1` as the compound, how does the IC50 (Alpha-glucosidase [14]) read?
Answer: The IC50 was 765 µM.

Question: What about the IC50 (Alpha-glucosidase [15]) of the same compound?
Answer: The IC50 was 36 µM.

Question: What does the source list for `C=C(C)/C=C/c1c(O)c(CC=C(C)C)c2oc3c(O)cccc3c(=O)c2c1O`?
Answer: IC50 (Alpha-glucosidase [1]): 21.5 µM; Ki (Alpha-glucosidase [2]): 12.3 µM; IC50 (Alpha-glucosidase [3]): 137.2 µM

Question: With `O=c1c2c(O)cc(O)cc2oc2ccc(O)c(O)c12` as the compound, how does the IC50 (Alpha glucosidase [10]) read?
Answer: The IC50 was 23.2 µM.

Question: For `C=C(C)/C=C/c1c(O)cc2oc3cc(O)c(OC)c(/C=C/C(=C)C)c3c(=O)c2c1O`, which IC50 (Alpha-glucosidase [1]) is on record?
Answer: The IC50 was 5 µM.

Question: And the IC50 (Alpha-glucosidase [16])?
Answer: Its IC50 is 11.4 µM.

Question: And the Ki (Alpha-glucosidase [2])?
Answer: The Ki was 7.3 µM.

Question: And the IC50 (Alpha-glucosidase [3])?
Answer: Its IC50 is 53.3 µM.

Question: Which IC50 (Alpha glucosidase [17]) does the source give for `O=c1c2cc(O)c(O)cc2oc2c([C@H]3O[C@@H](CO)[C@H](O)[C@@H](O)[C@@H]3O)c(O)cc(O)c12` here?
Answer: Its IC50 is 76.98 µg/mL (≈ 182 µM).

Question: What about the inhibition (Rattus norvegicus) of the same compound?
Answer: The inhibition was 50%.

Question: For `OC[C@H]1NC[C@H](O)[C@@H](O)[C@@H]1O`, which inhibition [18] is on record?
Answer: Its inhibition is 79.6%.

Question: What about the inhibition (Prunus dulcis) of the same compound?
Answer: The inhibition was 81.2%.

Question: Which IC50 (Alpha-glucosidase [4]) does the source give for `CC1(C)C=Cc2c(cc3oc4ccc(O)cc4c(=O)c3c2O)O1` here?
Answer: Its IC50 is > 100 µM.
